These results are taken from patent publication EP0608858A1, “5-Membered heterocycles as aggregation inhibitors” (Dr. Karl Thomae GmbH, priority 1993, dated 1994).

One data set concerns Thrombozytenaggregation. As to the kind of experiment: Collagen-induced platelet aggregation (Born and Cross) in platelet-rich plasma. The data set is classed as cell-based, gesunder Versuchspersonen. As to conditions: human platelet-rich plasma, 10 min preincubation with substance at 37°C, read-out: Hemmung der Plättchenaggregation EC₅₀. The text has this: 2. Antithrombotische Wirkung
Die Thrombozytenaggregation wird nach der Methode von Born und Cross (J. Physiol. 170, 397 (1964)) in plättchenreichem Plasma gesunder Versuchspersonen gemessen. Zur Gerinnungshemmung wird das Blut mit Natriumcitrat 3,14 % im Volumenverhältnis 1:10 versetzt.
Collagen-induzierte Aggregation
Der Verlauf der Abnahme der optischen Dichte der Plättchensuspension wird nach Zugabe der aggregationsauslösenden Substanz photometrisch gemessen und registriert. Aus dem Neigungswinkel der Dichtekurve wird auf die Aggregationsgeschwindigkeit geschlossen. Der Punkt der Kurve, bei dem die größte Lichtdurchlässigkeit vorliegt, dient zur Berechnung der "optical density".
Die Collagen-Konzentration wird möglichst gering gewählt, aber doch so, daß sich eine irreversibel verlaufende Reaktionskurve ergibt. Verwendet wird das handelsübliche Collagen der Firma Hormonchemie, München. Vor der Collagen-Zugabe wird das Plasma jeweils 10 Minuten mit der Substanz bei 37°C inkubiert.
Aus den Konzentrations-Wirkungskurven wird die EC₅₀ berechnet, die die Konzentration beschreibt, bei der die Änderung der "optical density" halbmaximal gehemmt ist.

For data set [1], the system named is Humanthrombozyten. As to the kind of experiment: Competitive binding of ³H-BIBU 52 / test substance to human platelets. The conditions noted are these: human platelets in plasma, ³H-BIBU 52 5 nM, 20 min at room temperature; read-out: Kompetitive Bindung ³H-BIBU 52 Textsubstanz an Humanthrombozyten IC₅₀. From the text:
1. Kompetitive Bindung ³H-BIBU 52/Testsubstanz an Humanthrombozyten:
Eine Suspension von Humanthrombozyten in Plasma wird mit ³H-BIBU 52 [= (3S,5S)-5-[(4'-Amidino-4-biphenylyl)oxymethyl]-3-[(carboxyl)methyl]-2-pyrrolidinon[3-³H-4-biphenylyl]], das den literaturbekannten Liganden ¹²⁵I-Fibrinogen ersetzt, (siehe deutsche Patentanmeldung P 42 14 245.8 der gleichen Anmeldezin vom 30. 04. 1992, internes Zeichen: Case 5/1093-FL) und verschiedenen Konzentrationen der zu testenden Substanz inkubiert. Der freie und gebundene Ligand wird durch Zentrifugation getrennt und durch Szintillationszählung quantitativ bestimmt. Aus den Meßwerten wird die Hemmung der ³H-BIBU 52-Bindung durch die Testsubstanz bestimmt.
Hierzu wird aus einer Antikubitalvene Spenderblut entnommen und mit Trinatriumzitrat antikoaguliert (Endkonzentration 13 mM) . Das Blut wird 10 Minuten bei 170 x g zentrifugiert und das überstehende plättchenreiche Plasma (PRP) abgenommen. Das Restblut wird zur Gewinnung von Plasma nocheinmal scharf abzentrifugiert. Das PRP wird mit autologem Plasma 1:10 verdünnt. 750 µl werden mit 50 µl physiologischer Kochsalzlösung, 100 µl Testsubstanzlösung, 50 µl ¹⁴C-Sucrose (3.700 Bq) und 50 µl ³H-BIBU 52 (Endkonzentration: 5 nM.) bei Raumtemperatur 20 Minuten inkubiert. Zur Messung der unspezifischen Bindung wird anstelle der Testsubstanz 5 µl BIBU 52 (Endkonzentration: 30 µM) eingesetzt. Die Proben werden 20 Sekunden bei 10000 x g zentrifugiert und der Überstand abgezogen. 100 µl hiervon werden zur Bestimmung des freien Liganden gemessen. Das Pellet wird in 500 µl 0,2N NaOH gelöst, 450 µl werden mit 2 ml Szintillator und 25 µl 5N HCl versetzt und gemessen. Das im Pellet noch verbliebene Restplasma wird aus dem ¹⁴C-Gehalt bestimmt, der gebundene Ligand aus der ³H-Messung. Nach Abzug der unspezifischen Bindung wird die Pelletaktivität gegen die Konzentration der Testssubstanzaufgetragen und die Konzentration für eine 50%ige Hemmung der Bindung ermittelt.

Data set [2] concerns Humanthrombozyten. As to the kind of experiment: Ex vivo inhibition of collagen-induced aggregation of human platelets by rat plasma obtained after oral dosing. Type of data set: in vivo. The conditions noted are these: rat plasma obtained after oral 10 mg/kg, after 3 hours. Here is the method: Außerdem erzielt man beispielsweise mit dem nach peroraler Gabe vom 10 mg/kg der Verbindung des Beispiels 2(19) gewonnenen Rattenplasma ex vivo nach 3 Stunden eine 80%ige Hemmung der durch Kollagen induzierten Aggregration von Humanthrombozyten.

The subject of another data set is Mäusen. As to the kind of experiment: Tolerability after intravenous administration to mice. Type of data set: in vivo. As to conditions: 30 mg/kg, 3 mice each.

Where a name gives a salt, the structure may show the parent alone.

`COC(=O)[C@H]1CC[C@H](c2nnc(-c3ccc(C4CCNCC4)cc3)s2)CC1` [2(3), 2-[trans-4-(Methoxycarbonyl)-cyclohexyl)-5-[4-(4-piperidyl)-phenyl]-1,3,4-thiadiazol-hydrochlorid]: the EC50 in the data set on Thrombozytenaggregation came to 380 nM. Also, in the data set with Humanthrombozyten [1], the IC50 came to 550 nM.
As for `CCOC(=O)[C@H]1CC[C@H](c2nnc(-c3ccc(C4CCNCC4)cc3)s2)CC1.Cl` [2(19), 2-[trans-4-(Ethoxycarbonyl)-cyclohexyl]-5-[4-(4-piperidyl)-phenyl]-1,3,4-thiadiazol-hydrochlorid], the “Hemmung der durch Kollagen induzierten Aggregration von Humanthrombozyten” value with Humanthrombozyten [2] came out at 80%.
Consider `O=C(O)CCCCc1nnc(-c2ccc(C3CCNCC3)cc2)o1` [3(1), 2-(4-Carboxybutyl)-5-[4-(4-piperidyl)-phenyl]-1,3,4-oxadiazol], for which the EC50 in the data set with Thrombozytenaggregation worked out at 4400 nM. In the data set with Humanthrombozyten [1], the IC50 came out at 6800 nM.
The corresponding values for `CCCCS(=O)(=O)NC(Cc1cn(-c2ccc(-c3ccc(C(=N)N)cc3)nn2)cn1)C(=O)O` (centres unmarked) [3(3), 1-[6-(4-Amidino-phenyl)-3-pyridazinyl]-4-[2-(n-butan-sulfonylamino)-2-carboxy-ethyl]-imidazol-hydrochlorid] are 40 nM and 1.6 nM.
As for `Cl.O=C(O)[C@H]1CC[C@H](c2nnc(-c3ccc(C4CCNCC4)cc3)s2)CC1` [5(3), 2-(trans-4-Carboxy-cyclohexyl)-5-[4-(4-piperidyl)-phenyl]-1,3,4-thiadiazol-hydrochlorid], in the data set with Mäusen, the Tiere gestorben entry was “keine Tiere gestorben”. Further, the EC50 in the data set on Thrombozytenaggregation came out at 100 nM. In the data set with Humanthrombozyten [1], the IC50 was 11 nM.
For `COC(=O)CCNC(=O)c1nnc(-c2ccc(C3CCNCC3)cc2)s1` [Beispiel 2, 2-[[2-(Methoxycarbonyl)-ethyl]-aminocarbonyl]-5-[4-(4-piperidyl)-phenyl]-1,3,4-thiadiazol-hydrochlorid], in the data set on Thrombozytenaggregation, the EC50 came to 3000 nM. Besides, the IC50 in the data set with Humanthrombozyten [1] was determined as 24000 nM.
The corresponding values for `O=C(O)CCNC(=O)c1nnc(-c2ccc(C3CCNCC3)cc2)s1` [Beispiel 3, 2-[(2-Carboxyethyl)-aminocarbonyl]-5-[4-(4-piperidyl)-phenyl]-1,3,4-thiadiazol-hydrochlorid] are 880 nM and 400 nM.
For `Cl.O=C(O)CCCCc1nnc(-c2ccc(C3CCNCC3)cc2)s1` [Beispiel 5, 2-(4-Carboxy-butyl)-5-[4-(4-piperidyl)-phenyl]-1,3,4-thiadiazol-hydrochlorid], the Tiere gestorben entry in the data set on Mäusen is “keine Tiere gestorben”. The EC50 with Thrombozytenaggregation worked out at 320 nM. The IC50 in the data set on Humanthrombozyten [1] was determined as 510 nM.
